From ChEMBL document CHEMBL3046437, “Synthesis, characterization and biological evaluation of some pyridine and quinoline fused chromenone derivatives” (2012)
Converted amounts (≈) assume the structure as drawn. The source made the active and inactive calls. No cut-off for these calls is given here.

How the values were obtained:
Type in all cases: functional
[1] = system: Streptococcus pyogenes; assay: Antibacterial activity against Streptococcus pyogenes ATCC 19615 after 24 to 48 hr by two-fold serial dilution method
[2] = system: Staphylococcus aureus; assay: Antibacterial activity against Staphylococcus aureus ATCC 25923 after 24 to 48 hr by two-fold serial dilution method
[3] = system: Staphylococcus aureus; assay: Antibacterial activity against Staphylococcus aureus ATCC 25923 at 100 ug/ml after 24 hr by agar diffusion method; settings: ATCC 25923, 24 h, read-out: DIZ
[4] = system: Pseudomonas; assay: Antibacterial activity against Pseudomonas phaseolicola GSPB 2828 after 24 to 48 hr by two-fold serial dilution method
[5] = system: Pseudomonas; assay: Antibacterial activity against Pseudomonas phaseolicola GSPB 2828 at 100 ug/ml after 24 hr by agar diffusion method; settings: GSPB 2828, 24 h, read-out: DIZ
[6] = system: Pseudomonas fluorescens; assay: Antibacterial activity against Pseudomonas fluorescens S 97 after 24 to 48 hr by two-fold serial dilution method
[7] = system: Streptococcus pyogenes; assay: Antibacterial activity against Streptococcus pyogenes ATCC 19615 at 100 ug/ml after 24 hr by agar diffusion method; settings: ATCC 19615, 24 h, read-out: DIZ
[8] = system: Pseudomonas fluorescens; assay: Antibacterial activity against Pseudomonas fluorescens S 97 at 100 ug/ml after 24 hr by agar diffusion method; settings: for zone of inhibition at 100 µg/mL: S 97, 24 h, read-out: DIZ
[9] = system: Fusarium oxysporum; assay: Antifungal activity against Fusarium oxysporum ATCC 16417 at 100 ug/ml after 48 hr by agar diffusion method; settings: ATCC 16417, 48 h, read-out: DIZ
[10] = system: Aspergillus niger; assay: Antifungal activity against Aspergillus niger MTCC 282 after 24 to 48 hr by two-fold serial dilution method
[11] = system: Fusarium oxysporum; assay: Antifungal activity against Fusarium oxysporum ATCC 16417 after 24 to 48 hr by two-fold serial dilution method
[12] = system: Aspergillus niger; assay: Antifungal activity against Aspergillus niger MTCC 282 at 100 ug/ml after 48 hr by agar diffusion method; settings: for zone of inhibition at 100 µg/mL: MTCC 282, 48 h, read-out: DIZ

| SMILES | MIC [1] | MIC [2] | zone of inhibition at 100 µg/mL [3] | MIC [4] | zone of inhibition at 100 µg/mL [5] | MIC [6] | zone of inhibition at 100 µg/mL [7] | zone of inhibition at 100 µg/mL [8] | zone of inhibition at 100 µg/mL [9] | MIC [10] | MIC [11] | zone of inhibition at 100 µg/mL [12] | diameter of the inhibition zone (DIZ) [12] | diameter of the inhibition zone (DIZ) [8] |
| --- | --- | --- | --- | --- | --- | --- | --- | --- | --- | --- | --- | --- | --- | --- |
| O=C(N[C@H](CO)[C@H](O)c1ccc([N+](=O)[O-])cc1)C(Cl)Cl [CHLORAMPHENICOL] | 3.12 µg/mL (≈ 9.67 µM) | 3.12 µg/mL (≈ 9.67 µM) | 42 mm | 6.25 µg/mL (≈ 19.3 µM) | 37 mm | 6.25 µg/mL (≈ 19.3 µM) | 44 mm | 38 mm | – | – | – | – | – | – |
| Cc1ccc2oc(=O)c3cc4c(nc3c2c1)-c1ccccc1CC4 | 25 µg/mL (≈ 79.8 µM) | 50 µg/mL (≈ 160 µM) | 23 mm | 25 µg/mL (≈ 79.8 µM) | 18 mm | 25 µg/mL (≈ 79.8 µM) | 17 mm | 18 mm | 17 mm | 50 µg/mL (≈ 160 µM) | 50 µg/mL (≈ 160 µM) | 18 mm | – | – |
| Cc1cccc2c1oc(=O)c1cc3c(nc12)CCCC3 | 25 µg/mL (≈ 94.2 µM) | 12.5 µg/mL (≈ 47.1 µM) | 27 mm | 25 µg/mL (≈ 94.2 µM) | 19 mm | 25 µg/mL (≈ 94.2 µM) | 18 mm | 20 mm | 10 mm | 50 µg/mL (≈ 188 µM) | 100 µg/mL (≈ 377 µM) | 25 mm | – | – |
| Cc1ccc2oc(=O)c3cc4c(nc3c2c1)CCCC4 | 12.5 µg/mL (≈ 47.1 µM) | 50 µg/mL (≈ 188 µM) | 21 mm | 50 µg/mL (≈ 188 µM) | 14 mm | 50 µg/mL (≈ 188 µM) | 25 mm | 16 mm | 17 mm | – | 50 µg/mL (≈ 188 µM) | – | inactive | – |
| O=c1oc2ccc(Cl)cc2c2nc3c(cc12)CCCC3 | 12.5 µg/mL (≈ 43.7 µM) | 12.5 µg/mL (≈ 43.7 µM) | 24 mm | 50 µg/mL (≈ 175 µM) | 18 mm | – | 23 mm | – | 16 mm | 50 µg/mL (≈ 175 µM) | 50 µg/mL (≈ 175 µM) | 20 mm | – | inactive |
| Cc1cccc2c1oc(=O)c1cc3c(nc12)-c1ccccc1CC3 | 12.5 µg/mL (≈ 39.9 µM) | 12.5 µg/mL (≈ 39.9 µM) | 25 mm | 50 µg/mL (≈ 160 µM) | 14 mm | 50 µg/mL (≈ 160 µM) | 20 mm | 15 mm | 11 mm | 50 µg/mL (≈ 160 µM) | 100 µg/mL (≈ 319 µM) | 15 mm | – | – |
| O=c1oc2ccc(Cl)cc2c2nc3c(cc12)CCc1ccccc1-3 | 12.5 µg/mL (≈ 37.5 µM) | 12.5 µg/mL (≈ 37.5 µM) | 26 mm | 50 µg/mL (≈ 150 µM) | 15 mm | 50 µg/mL (≈ 150 µM) | 23 mm | 16 mm | 23 mm | 100 µg/mL (≈ 300 µM) | 12.5 µg/mL (≈ 37.5 µM) | 8 mm | – | – |
